The source of these data is patent publication US7964557B2, “Inhibition of wet type age related macular degeneration (AMD) by adiponectin or acrp 30” (University of Louisville Research Foundation, Inc., priority 2005, dated 2011).

For test [1], the system named is laser-induced CNV. Nature of the test: laser-induced mouse model of choroidal neovascularization (CNV), CNV size by confocal microscopy. The class given is in vivo, C57BL/6 mice. The settings on record: for reduction in CNV size compared to control: p<0.005; for neovascular complex in laser spots, confocal micrograph: compared to control; for reduction of CNV size compared to control mice: injected subretinally into the eye, 5 μg; for reduction of CNV size compared to control mice / decrease in CNV size compared to control mice: control PBS; for decrease in CNV size compared to control mice: day 7 after laser; for effect on CNV size compared among adiponectin peptides (words): mouse model of CNV, route not stated. How it is done: Animals (C57BL/6 mice) were divided into 3 groups. CNV was induced by laser photocoagulation in group 1 (n=5) with the krypton red laser (50 μm spot size; 0.05 s duration; 250 mW), as previously described (Bora et al. 2003 Proc. Natl. Acad. Sci. USA 100:2679-2685; Bora et al. 2005 J. Immunol. 174:491-497) and no APN was administered to these mice. Three laser spots were placed in each eye close to the optic nerve. In group 2 (n=5), the mice were treated, i.p., with 25 μg of rAPN, one day before laser photocoagulation and every day after laser treatment until day 6. Group 3 animals received subretinal injections on days 0, 1, and 3 in one eye, the other eye received PBS as control. All the experiments were repeated three times.
We injected 50 μg peptide NH2-LQVYGDGDHNGLYADNVN-COOH (SEQ ID NO: 1, synthesized at Peptide Biochemical Research Inc. Seattle, USA; dissolved in PBS) intraperitoneally (i.p.) to mice (n=5) as well as intravitreally (i-vit.). Six i.p. injections were given, one preceding laser treatment and five following the laser treatment. Control group was given sterile PBS. One group (n=5) was photocoagulated on day 0 and on day 1 a single 30 μg i-vit. injection was given. All the experiments were repeated three times. Mice were sacrificed following perfusion with FITC dextran on day 7 and eyes removed and fixed in formaldehyde. Choroidal-scleral flat mounts were prepared and processed for immunostaining. Laser confocal micrographs were used to measure the size of CNV by Image-Pro-Plus software (Media Cybernetics, Inc. Silver Spring, Md.).
Seven days after laser treatment, the eyes of all animals were perfused with 1 ml of PBS containing 50 mg/ml fluorescein-labeled dextran (FITC-dextran; average molecular mass, 2×10^6; Sigma-Aldrich) and the animals were sacrificed. The eyes were harvested and fixed in 10% phosphate-buffered formalin, and retinal pigment epithelium (RPE)-choroid-scleral flat mounts were prepared as previously described (Bora et al. 2003 supra; Bora et al. 2005 supra.). RPE-choroid-scleral flat mounts were stained for elastin using a mAb specific for elastin (1.0 mg/ml; 1/2000 dilution; Sigma-Aldrich) followed by a Cy3-labeled secondary Ab (1.0 mg/ml; 1/2000 dilution; Sigma-Aldrich). The incidence and the size of CNV were determined by confocal microscopy. The size of the CNV complex was graded by morphometric analysis of the images (MetaMorph Image Analysis software package; Universal Imaging) obtained from confocal microscopy.

Test [2] concerns VEGF. Put plainly: RT-PCR of VEGF mRNA in choroids of laser-treated mice. The class given is in vivo, C57BL/6 mice. Conditions: APN administered vs laser-treated mice without APN; FIG. 5; listed as APN. Here is the method: Ten laser spots were placed in each eye of C57BL/6 mice as described below. Animals from each group (n=10/each time point) were sacrificed at days 1, 3, 5, and 7 post-laser treatment, RPE-choroid-scleral tissues harvested from the enucleated eyes were pooled separately for each time point and without laser treatment (control), and total RNA was prepared using SV Total RNA Isolation kit (Promega, Madison, Wis.). Equal amounts of the total RNA (0.2 μg) were used to detect the mRNA levels of GAPDH, VEGF, β-FGF and APN by RT-PCR using the reagents purchased from Applied Biosystems. The sense and antisense oligonucleotide primers were synthesized at Integrated DNA Technologies, and PCR used 30 cycles. The negative controls consisted of omission of RNA or reverse transcriptase in the reaction mixture. PCR products were analyzed on a 2% agarose gel and were examined by using the Molecular Analyst/PC program (Bio-Rad). RT-PCR was conducted using the following primers: GAPDH (forward (F), 5′-[…]-3′, SEQ ID NO; 5; reverse (R), 5′-[…]-3′, SEQ ID NO: 6); VEGF (F, 5′-GCGGGCTGCCTCGCAGTC-3′, SEQ ID NO: 7; R, 5′-[…]-3′, SEQ ID NO: 8); β-FGF (F, 5′-[…]-3′, SEQ ID NO: 9; R, 5′-[…]-3′, SEQ ID NO: 10); TGF-β2 (F, 5′-[…]-3′, SEQ ID NO: 11; R, 5′-[…]-3′, SEQ ID NO: 12); APN (F, 5′-[…]-3′, SEQ ID NO: 13; R, 5′-[…]-3′, SEQ ID NO: 14)

Where [3] appears, read: intraperitoneal (i.p.) injection, 25 μg rAPN or 50 μg 18 mer peptide.

Take “NH2-LQVYGDGDHNGLYADNVN-COOH (H-LQVYGDGDHNGLYADNVN-OH) [18 mer peptide, 18 mer synthetic peptide, amino acid residues 216-233 of mouse adiponectin globular domain]”: the “reduction in CNV size compared to control” value in test [1] (i-vit injection, single dose a day after laser, FIG. 7B) was “significant reduction”; in test [1] (i.p. injection, 50 μg/mouse, six daily injections, FIG. 7A), “significant reduction”. In addition, the “neovascular complex in laser spots, confocal micrograph” value in test [1] (i.p. injection) and in test [1] (intravitreal injection) was “significantly inhibited” in each case. Further, the “reduction of CNV size compared to control mice” value in test [1] is reported as 70%. Also, the “decrease in CNV size compared to control mice” value is on record as roughly 80% in test [1] (setting [3]) and “about 70%” in test [1] (intravitreal injection). Further, the “effect on CNV size compared among adiponectin peptides (words)” value in test [1] was “as effective as the intact adiponectin protein”; in test [1] (listed as 18 mer synthetic peptide) it was “reduced the size of CNV similarly”.

B1: rAPN: mouse recombinant adiponectin polypeptide of about 30 kDa obtained from BioVision Research Products (protein, UniProt Q60994 18-247, looked up)
Adiponectin: EDDVTTTEELAPALVPPPKGTCAGWMAGIPGHPGHNGTPGRDGRDGTPGEKGEKGDAGLLGPKGETGDVGMTGAEGPRGFPGTPGRKGEPGEAAYVYRSAFSVGLETRVTVPNVPIRFTKIFYNQQNHYDGSTGKFYCNIPGLYYFSYHITVYMKDVKVSLFKKDKAVLFTYDQYQEKNVDQASGSVLLHLEVGDQVWLQVYGDGDHNGLYADNVNDSTFTGFLLYHDTN
In the case of B1, in test [1] (i.p. injection), the “neovascular complex in laser spots, confocal micrograph” value is “significantly inhibited”. Besides, the “reduction of CNV size compared to control mice” value in test [1] turned out to be 70%. For the same molecule, the “decrease in CNV size compared to control mice” value is on record as 80% in test [1] (setting [3]); “about 70%” in test [1] (intravitreal injection); 70% in test [1] (intravitreal injection, listed as APN). For the same molecule, the “effect on CNV size compared among adiponectin peptides (words)” value in test [1] is “reduced the size of CNV similarly”. The “VEGF expression in the choroids of laser-treated mice” value in test [2] is recorded as “inhibited VEGF expression”.
